Laboratory results taken from paper PMC5011342, “A high throughput drug screening assay to identify compounds that promote oligodendrocyte differentiation using acutely dissociated and purified oligodendrocyte precursor cells” (BMC Research Notes, 2016).
Where two headings read alike, the source gives them in different places.

Experiments:
[1] = tested on: acutely dissociated and purified rat OPCs; test: Acute OL differentiation assay (MBP expression/cell, immunofluorescent image quantification); assay type: cell-based; conditions: for activation at 0.4 µM / activation at 2 µM / activation at 0.08 µM / activation at 10 µM: Rattus norvegicus; for activation at 0.08 µM: test compound at 0.08 uM, read-out: 0.08 uM (% Quet)
How it was run: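 This acute differentiation assay used purified rat OPCs from postnatal day 6–7 pups, seeded into PDL/laminin-coated 96-well plates in differentiation medium lacking PDGF and FGF. Compounds were applied in quadruplicate after a 1–2 h preincubation at 37 °C, 10 % CO2, with 0.1 % DMSO negative and 40 ng/ml T3 positive controls in eight wells. After fixation on DIV4, anti-MBP immunofluorescence images yielded MBP expression/cell.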

expanded OPCs = test: cells; conditions: for viability at 0.1 µM / viability at 1 µM / viability at 10 µM: Rattus norvegicus, 72 h
How it was run: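 Toxicity screen: compounds added at 0.1, 1 and 10 µM to PDGF-AA-expanded OPCs in 96-well plates, 3-day incubation at 37 °C, 10% CO2, then alamarBlue 1:10 for 4 h with fluorescence readout. Results set screening doses of 10/2, 2/0.4 or 0.4/0.08 µM.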

[2] = 2 uM test compound, relative to quetiapine, sheet "All OLga data", read-out: OL differentiation, 2 uM (% Quet)
[3] = test compound at 0.4 uM, NCC library screen, sheet "All OLga data", relative to quetiapine, read-out: 0.4 uM (% Quet)
[4] = test compound at 2 uM, NCC library screen, sheet "All OLga data", relative to quetiapine, read-out: 2 uM (% Quet)
[5] = read-out: 0.1 µM (% DMSO), alamarBlue viability, NCC library compound at 0.1 µM, sheet "All Tox data"
[6] = read-out: 1 µM (% DMSO), alamarBlue viability, NCC library compound at 1 µM, sheet "All Tox data"
[7] = read-out: 10 µM (% DMSO), alamarBlue viability, NCC library compound at 10 µM, sheet "All Tox data"
[8] = NCC library screen, sheet "All OLga data", relative to quetiapine
[9] = test compound at 10 uM, NCC library screen, sheet "All OLga data", relative to quetiapine, read-out: 10 uM (% Quet)
[10] = alamarBlue viability of expanded OPCs, compound at 0.1 µM, relative to DMSO control
[11] = alamarBlue viability of expanded OPCs, compound at 1 µM, relative to DMSO control
[12] = alamarBlue viability of expanded OPCs, compound at 10 µM, relative to DMSO control
[13] = 10 uM test compound, relative to quetiapine, sheet "All OLga data", read-out: OL differentiation, 10 uM (% Quet)
[14] = read-out: 0.1 µM (% DMSO), alamarBlue viability of expanded OPCs, compound at 0.1 µM, sheet All Tox data
[15] = read-out: 1 µM (% DMSO), alamarBlue viability of expanded OPCs, compound at 1 µM, sheet All Tox data
[16] = read-out: 10 µM (% DMSO), alamarBlue viability of expanded OPCs, compound at 10 µM, sheet All Tox data

CN(C)CCC(c1ccc(Cl)cc1)c1ccccn1 (stereo not drawn) [Chlorpheniramine]
activation at 0.4 µM ([1]; 0.4 uM test compound, relative to quetiapine, sheet "All OLga data", read-out: OL differentiation, 0.4 uM (% Quet)): 8.7% | activation at 2 µM [1, 2]: 10.5% | activation at 0.4 µM [1, 3]: -6.7% | activation at 2 µM [1, 4]: 7.6% | viability at 0.1 µM (expanded OPCs; [5]): 86.5% | viability at 1 µM (expanded OPCs; [6]): 77.7% | viability at 10 µM (expanded OPCs; [7]): 46.7%

CN(C)CCCN1c2ccccc2Sc2ccc(Cl)cc21 [Chlorpromazine]
activation at 0.08 µM [1, 8]: 7.4% | activation at 0.4 µM [1, 3]: -44.8% | viability at 0.1 µM (expanded OPCs; [5]): 67.2% | viability at 1 µM (expanded OPCs; [6]): 38.2% | viability at 10 µM (expanded OPCs; [7]): 10.5%

CCCNC(=O)NS(=O)(=O)c1ccc(Cl)cc1 [Chlorpropamide]
activation at 2 µM [1, 4]: -27.8% | activation at 10 µM [1, 9]: -19% | 0.1 µM (% DMSO) (expanded OPCs; [10]): 185.9 % DMSO | 1 µM (% DMSO) (expanded OPCs; [11]): 197.2 % DMSO | 10 µM (% DMSO) (expanded OPCs; [12]): 208.8 % DMSO

NS(=O)(=O)c1cc(C2(O)NC(=O)c3ccccc32)ccc1Cl (stereo not drawn) [Chlorthalidone]
activation at 2 µM ([1]; test compound at 2 uM, MBP expression relative to quetiapine, NCC library screen, sheet "All OLga data", read-out: 2 uM (% Quet)): -5.8% | activation at 10 µM ([1]; test compound at 10 uM, MBP expression relative to quetiapine, NCC library screen, sheet "All OLga data", read-out: 10 uM (% Quet)): -2% | 0.1 µM (% DMSO) (expanded OPCs; [10]): 92.5 % DMSO | 1 µM (% DMSO) (expanded OPCs; [11]): 95.8 % DMSO | 10 µM (% DMSO) (expanded OPCs; [12]): 81.7 % DMSO

CC1(C)C[C@@H]1C(=O)N/C(=C\CCCCSC[C@H](N)C(=O)O)C(=O)O [Cilastatin]
activation at 2 µM ([1]; read-out: OL differentiation, 2 uM (% Quet)): -1.9% | activation at 10 µM ([1]; read-out: OL differentiation, 10 uM (% Quet)): -4.3% | viability at 0.1 µM (expanded OPCs; read-out: 0.1 µM (% DMSO)): 96.8% | viability at 1 µM (expanded OPCs; read-out: 1 µM (% DMSO)): 95.5% | viability at 10 µM (expanded OPCs; read-out: 10 µM (% DMSO)): 89.5%

CN/C(=N/CCSCc1nc[nH]c1C)NC#N [Cimetidine]
activation at 2 µM [1, 4]: 2.9% | activation at 10 µM [1, 9]: -11.1% | 0.1 µM (% DMSO) (expanded OPCs; [10]): 89.7 % DMSO | 1 µM (% DMSO) (expanded OPCs; [11]): 89.2 % DMSO | 10 µM (% DMSO) (expanded OPCs; [12]): 92.3 % DMSO

CN(C)CCCSc1ccccc1NC(=O)/C=C/c1ccccc1 [Cinanserin]
activation at 2 µM [1, 2]: 64.2% | activation at 10 µM [1, 13]: 63.5% | viability at 0.1 µM (expanded OPCs; [14]): 80.3% | viability at 1 µM (expanded OPCs; [15]): 84.3% | viability at 10 µM (expanded OPCs; [16]): 74.7%

COc1cc(N)c(Cl)cc1C(=O)NC1CCN(CCCOc2ccc(F)cc2)CC1OC (stereo not drawn) [Cisapride]
activation at 2 µM [1, 2]: 11.3% | activation at 10 µM [1, 13]: 25.5% | viability at 0.1 µM (expanded OPCs; [14]): 80.4% | viability at 1 µM (expanded OPCs; [15]): 89% | viability at 10 µM (expanded OPCs; [16]): 73.6%

Nc1nc(Cl)nc2c1ncn2[C@H]1C[C@H](O)[C@@H](CO)O1 [Cladribine]
activation at 0.08 µM [1, 8]: -6.7% | activation at 0.4 µM [1, 3]: -22.9% | viability at 0.1 µM (expanded OPCs; [5]): 41.2% | viability at 1 µM (expanded OPCs; [6]): 22.4% | viability at 10 µM (expanded OPCs; [7]): 10.4%

NC(=NCc1ccc(Cl)cc1)SCCCc1cnc[nH]1 [Clobenpropit]
activation at 0.4 µM [1, 3]: 7.2% | activation at 2 µM [1, 4]: -2.7% | viability at 0.1 µM (expanded OPCs; [5]): 120% | viability at 1 µM (expanded OPCs; [6]): 107% | viability at 10 µM (expanded OPCs; [7]): 39.3%

C[C@H]1C[C@H]2[C@@H]3CCC4=CC(=O)C=C[C@]4(C)[C@@]3(F)[C@@H](O)C[C@]2(C)[C@@]1(O)C(=O)CCl [Clobetasol]
2 uM (% Quet) ([1]; test compound at 2 uM, NCC library screen, sheet "All OLga data", relative to quetiapine): -30.9 % Quet | 10 uM (% Quet) ([1]; test compound at 10 uM, NCC library screen, sheet "All OLga data", relative to quetiapine): -99.6 % Quet | 0.1 µM (% DMSO) (expanded OPCs; alamarBlue viability, NCC library compound at 0.1 µM, sheet "All Tox data"): 124.1 % DMSO | 1 µM (% DMSO) (expanded OPCs; alamarBlue viability, NCC library compound at 1 µM, sheet "All Tox data"): 133.0 % DMSO | 10 µM (% DMSO) (expanded OPCs; alamarBlue viability, NCC library compound at 10 µM, sheet "All Tox data"): 121.5 % DMSO

CC(C)/N=c1\cc2n(-c3ccc(Cl)cc3)c3ccccc3nc-2cc1Nc1ccc(Cl)cc1 [Clofazimine]
activation at 0.08 µM [1, 8]: 0.25% | activation at 0.4 µM [1, 3]: -57.8% | viability at 0.1 µM (expanded OPCs; [5]): 89.9% | viability at 1 µM (expanded OPCs; [6]): 45.9% | viability at 10 µM (expanded OPCs; [7]): 19%

CCN(CC)CCOc1ccc(C(=C(Cl)c2ccccc2)c2ccccc2)cc1 [Clomiphene]
activation at 0.4 µM ([1]; test compound at 0.4 uM, MBP expression relative to quetiapine, NCC library screen, sheet "All OLga data", read-out: 0.4 uM (% Quet)): 51.5% | 0.1 µM (% DMSO) (expanded OPCs; [10]): 172.3 % DMSO | 1 µM (% DMSO) (expanded OPCs; [11]): 59.8 % DMSO | 10 µM (% DMSO) (expanded OPCs; [12]): 8.1 % DMSO
